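Tested at 5 concentrations; 48 h exposure; 96-well plates; endpoints linearly interpolated, else capped at highest concentration. GI50 = concentration required for 50% inhibition of growth.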 Activity calls are given as the source filed them. Rule as the data show it: active = GI50 up to about 1.1 µM and inactive = higher.
What was measured:
Assay in all cases: growth of human tumour cells (NCI), 48 h
M14 = test system: M14
CCRF-CEM = test system: CCRF-CEM
NCI-H460 = test system: NCI-H460
SF-539 = test system: SF-539
OVCAR-5 = test system: OVCAR-5
SNB-19 = test system: SNB-19
HCT-15 = test system: HCT-15
SW-620 = test system: SW-620
K562 = test system: K562
RPMI-8226 = test system: RPMI-8226
HCT-116 = test system: HCT-116
COLO 205 = test system: COLO 205
KM12 = test system: KM12
MOLT-4 = test system: MOLT-4
EKVX = test system: EKVX
SK-MEL-5 = test system: SK-MEL-5
NCI-H522 = test system: NCI-H522
SNB-75 = test system: SNB-75
HOP-92 = test system: HOP-92

Row | SMILES | GI50 (M14) | GI50 (CCRF-CEM) | GI50 (NCI-H460) | GI50 (SF-539) | GI50 (OVCAR-5) | GI50 (SNB-19) | GI50 (HCT-15) [µM] | GI50 (SW-620) | GI50 (K562) | GI50 (RPMI-8226) | GI50 (HCT-116) | GI50 (COLO 205) | GI50 (KM12) | GI50 (MOLT-4) | GI50 (EKVX) | GI50 (SK-MEL-5) | GI50 (NCI-H522) | GI50 (SNB-75) | GI50 (HOP-92)
1 | CC(C)(C)C1CCC(O)(c2ccccc2)CC1 (centres undefined) | 71.8 µM (inactive) | 92.9 µM (inactive) | > 100 µM (inactive) | > 100 µM (inactive) | > 100 µM (inactive) | > 100 µM (inactive) | 94.2 | > 100 µM (inactive) | 47.6 µM (inactive) | 47.8 µM (inactive) | 96.2 µM (inactive) | > 100 µM (inactive) | > 100 µM (inactive) | 59.8 µM (inactive) | > 100 µM (inactive) | 38.3 µM (inactive) | 40.6 µM (inactive) | 86.7 µM (inactive) | –
2 | COC(=O)[C@](NC(=O)OCc1ccccc1)([C@@H](C)Sc1ccc(C)cc1)C(F)(F)F | 68.2 µM (inactive) | 13.6 µM (inactive) | 34.5 µM (inactive) | 69.3 µM (inactive) | > 100 µM (inactive) | > 100 µM (inactive) | 27.5 | 27.2 µM (inactive) | 23.6 µM (inactive) | 29.2 µM (inactive) | 35.4 µM (inactive) | 19.2 µM (inactive) | 42.7 µM (inactive) | 21 µM (inactive) | 57.9 µM (inactive) | 18.3 µM (inactive) | 25.1 µM (inactive) | – | –
3 | c1ccc2c(c1)SC(=C1Sc3ccccc3S1)S2 | > 100 µM (inactive) | > 100 µM (inactive) | 55.8 µM (inactive) | – | – | > 100 µM (inactive) | > 100 | > 100 µM (inactive) | > 100 µM (inactive) | – | – | > 100 µM (inactive) | – | > 100 µM (inactive) | > 100 µM (inactive) | – | – | 22.4 µM (inactive) | 61.7 µM (inactive)
4 | C/C(=N\NS(=O)(=O)c1ccc(C)cc1)c1c(O)cc(C)oc1=O | > 100 µM (inactive) | > 100 µM (inactive) | > 100 µM (inactive) | > 100 µM (inactive) | – | > 100 µM (inactive) | > 100 | > 100 µM (inactive) | > 100 µM (inactive) | – | > 100 µM (inactive) | – | > 100 µM (inactive) | > 100 µM (inactive) | > 100 µM (inactive) | > 100 µM (inactive) | – | > 100 µM (inactive) | > 100 µM (inactive)
5 | COC(=O)C(=O)CC(=O)CCn1[nH]c(=O)c(Cl)c(Cl)c1=O | > 100 µM (inactive) | – | > 100 µM (inactive) | > 100 µM (inactive) | > 100 µM (inactive) | > 100 µM (inactive) | > 100 | > 100 µM (inactive) | > 100 µM (inactive) | – | > 100 µM (inactive) | > 100 µM (inactive) | > 100 µM (inactive) | – | > 100 µM (inactive) | > 100 µM (inactive) | > 100 µM (inactive) | > 100 µM (inactive) | > 100 µM (inactive)
6 | CC(C)C(Br)CCC1=CCC(Br)(Br)C1 (centres undefined) | 3.81 µM (inactive) | 2.79 µM (inactive) | 16.7 µM (inactive) | 19.2 µM (inactive) | 16.7 µM (inactive) | 18 µM (inactive) | – | 3.52 µM (inactive) | 4.57 µM (inactive) | – | 14.6 µM (inactive) | 15.7 µM (inactive) | 13.3 µM (inactive) | 3.48 µM (inactive) | 17.9 µM (inactive) | 5.45 µM (inactive) | 2.35 µM (inactive) | 10.9 µM (inactive) | 5.2 µM (inactive)
7 | Cc1ccc2nc(CN(CCO)CCO)cc(=O)n2c1 | > 100 µM (inactive) | > 100 µM (inactive) | > 100 µM (inactive) | > 100 µM (inactive) | > 100 µM (inactive) | > 100 µM (inactive) | > 100 | > 100 µM (inactive) | > 100 µM (inactive) | – | > 100 µM (inactive) | > 100 µM (inactive) | > 100 µM (inactive) | > 100 µM (inactive) | > 100 µM (inactive) | – | > 100 µM (inactive) | > 100 µM (inactive) | > 100 µM (inactive)
8 | Oc1ccc(O)c(Sc2nnc(CCCCCCCCc3nnc(Sc4cc(O)ccc4O)o3)o2)c1 | > 100 µM (inactive) | – | 72.9 µM (inactive) | – | 95.9 µM (inactive) | > 100 µM (inactive) | 88.7 | 31.3 µM (inactive) | 39.8 µM (inactive) | 23.1 µM (inactive) | 18.1 µM (inactive) | 48.3 µM (inactive) | 26.7 µM (inactive) | 49.5 µM (inactive) | > 100 µM (inactive) | > 100 µM (inactive) | 23.8 µM (inactive) | > 100 µM (inactive) | 24 µM (inactive)
9 | Cc1ccc(S(=O)(=O)NCCCN(CCCNS(=O)(=O)c2ccc(C)cc2)S(=O)(=O)c2ccc(C)cc2)cc1 | > 100 µM (inactive) | > 100 µM (inactive) | > 100 µM (inactive) | > 100 µM (inactive) | – | > 100 µM (inactive) | > 100 | > 100 µM (inactive) | > 100 µM (inactive) | > 100 µM (inactive) | > 100 µM (inactive) | > 100 µM (inactive) | 89.1 µM (inactive) | > 100 µM (inactive) | – | – | > 100 µM (inactive) | > 100 µM (inactive) | –

Source: ChEMBL document CHEMBL1201862, “PubChem BioAssay data set” (2004)
